Results taken from patent US10023652B2, “Method of targeting glycoproteins to treat cancer” (Board of Regents of the University of Nebraska, priority 2013, dated 2018).

System: phosphorylation of Akt (S473)
Assay: Treatment of Capan-1 Cosmc KO cells with HER2 inhibitor, Akt phosphorylation by immunoblotting
Format: cell-based, human
Settings: 24 h, FIG. 9B

COCC(=O)NC/C=C/c1ccc2ncnc(Nc3ccc(Oc4ccc(C)nc4)c(C)c3)c2c1 [CP724714]
phosphorylation of Akt: decreases the phosphorylation of Akt in a dose dependent manner
